Laboratory results taken from patent US20180110795A1, “COMPOSITIONS AND METHODS FOR DETECTING AND TREATING PERIODONTAL DISEASE” (THE FORSYTH INSTITUTE, priority 2015, published 2018).

Tests used:
Assay type in all cases: cell-based
S. intermedius = experiment: Active fraction of microbes by rRNA analysis in liquid culture of oral plaque; conditions: TPP at concentrations as low as 25 mM
Description: (§1) Oral plaque containing Streptococcus sanguinis was obtained from a human subject and cultured in liquid culture in the presence or absence of TPP. S. sanguinis is a gram positive bacteria that binds to the surface if the teeth, where it acts as a tether for the attachment of other bacteria that form dental plaque, and contributes to the development of caries and periodontal disease. S. Sangunis has all of the genes required for anaerobic cobalamin biosynthesis.
(§2) Microbes exist in a range of metabolic states (e.g., dormant, active and growing) and analysis of ribosomal RNA (rRNA) is frequently employed to identify the ‘active’ fraction of microbes in samples. […] This is of particular interest given that other bacterial species may utilize and or depend on the cobalamin synthesized by S. Sanguinis, thus making this species a keystone esential to maintain a mature biofilm.

Streptococcus sanguinis = experiment: as above; conditions: three hours of incubation
Description: as §1, §2

Rothia dentocariosa = experiment: as above; conditions: TPP at concentrations as low as 25 mM
Description: as §1, §2

S. Genus probe 1 = experiment: as above; conditions: TPP at concentrations as low as 25 mM
Description: as §1, §2

Solobacterium moorei = experiment: as above; conditions: TPP at concentrations as low as 25 mM
Description: as §1, §2

oral microbial community = experiment: Principal component analysis of active community composition by 16S rRNA genes from cultures of plaque; conditions: cultures of plaque from a human subject, samples at 0, 3, 9 and 18 hours, all concentrations
Description: Principal component analysis was used to analyze changes in oral microbial community composition. Results of an analysis of the active community composition isolated from a human subject was carried out by analysis of 16S rRNA genes from cultures of plaque. The panel of species identified included 500 different species. Samples from the culture were taken at 0, 3, 9 and 18 hours.

oral plaque = experiment: Plaque bacteria plated on blood agar and cultured with or without TPP; conditions: plaque bacteria from four human subjects on blood agar, various concentrations of TPP
Description: Dental plaque is a biofilm that builds up on teeth and contains bacteria associated with cavities, gingivitis, and periodontitis. Plaque samples were obtained from four human subjects. Plaque bacteria from each subject was plated on blood agar and cultured in the presence or absence of various concentrations of Sodium tripolyphospate (TPP), which inhibits Cob(I)alamin adenosyltransferase.

SMILES: O=P(O)(O)OP(=O)(O)OP(=O)(O)O [TPP, sodium tripolyphosphate]
- activity of S. intermedius (S. intermedius): significantly reduced
- fraction of active S. Sanguinis vs control with no TPP (Streptococcus sanguinis; 25 mM TPP): significantly lower
- fraction of active S. Sanguinis vs control with no TPP (Streptococcus sanguinis; 50 mM TPP): significantly lower
- activity of Rothia dentocariosa (Rothia dentocariosa): significantly reduced
- activity of S. Genus probe 1 (S. Genus probe 1): significantly reduced
- activity of Solobacterium moorei (Solobacterium moorei): significantly reduced
- change in composition of bacterial communities (oral microbial community): affected all of the bacterial communities in similar ways at all concentrations
- oral plaque growth (oral plaque): completely inhibited oral plaque growth in a dose dependent manner
